Key:
Details in all cases: incubation time: 72 h
[1] = tested on: Hs578T; assay: normalised response (% of control), CellTox Green; higher = less cell death (100 = DMSO, 0 = benzethonium chloride kill control)
Procedure, shortened: (§1)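 In 384-well plates holding compound at 5 concentrations in 10-fold steps over a 10,000-fold range specific to each compound, breast cancer cell lines were seeded as 20 µl suspension and incubated 72 h. CellTox Green fluorescence was measured at 485/520 nm, after which CellTiter-Glo luminescence was measured following 10 min at room temperature. Plate signals were normalised to 0.1 % DMSO (100) and a positive kill control (0), and each value is the normalised signal at a single concentration.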

[2] = tested on: MCF-10A; assay: as above
Procedure, shortened: as §1

[3] = tested on: CAL-85-1; assay: as above
Procedure, shortened: as §1

[4] = tested on: CAL-148; assay: as above
Procedure, shortened: as §1

[5] = tested on: CAL-120; assay: as above
Procedure, shortened: as §1

[6] = tested on: HCC1143; assay: as above
Procedure, shortened: as §1

[7] = tested on: HCC1937; assay: as above
Procedure, shortened: as §1

[8] = tested on: MDA-MB-231; assay: as above
Procedure, shortened: as §1

[9] = tested on: BT-549; assay: as above
Procedure, shortened: as §1

[10] = tested on: DU-4475; assay: as above
Procedure, shortened: as §1

[11] = tested on: HDQ-P1; assay: as above
Procedure, shortened: as §1

[12] = tested on: MDA-MB-453; assay: as above
Procedure, shortened: as §1

[13] = tested on: MFM-223; assay: as above
Procedure, shortened: as §1

[14] = tested on: MDA-MB-468; assay: as above
Procedure, shortened: as §1

[15] = tested on: HCC1599; assay: as above
Procedure, shortened: as §1

[16] = tested on: CAL-51; assay: as above
Procedure, shortened: as §1

[17] = tested on: MDA-MB-436; assay: as above
Procedure, shortened: as §1

[18] = tested on: BT-474; assay: as above
Procedure, shortened: as §1

[19] = tested on: Hs578T; assay: normalised response (% of control), CellTiter-Glo; higher = more viable cells (100 = DMSO, 0 = benzethonium chloride kill control)
Procedure, shortened: as §1

[20] = tested on: MCF-10A; assay: as above
Procedure, shortened: as §1

[21] = tested on: CAL-85-1; assay: as above
Procedure, shortened: as §1

[22] = tested on: SK-BR-3; assay: as above
Procedure, shortened: as §1

[23] = tested on: CAL-148; assay: as above
Procedure, shortened: as §1

[24] = tested on: CAL-120; assay: as above
Procedure, shortened: as §1

[25] = tested on: HCC1143; assay: as above
Procedure, shortened: as §1

[26] = tested on: HCC1937; assay: as above
Procedure, shortened: as §1

[27] = tested on: MDA-MB-231; assay: as above
Procedure, shortened: as §1

[28] = tested on: BT-549; assay: as above
Procedure, shortened: as §1

[29] = tested on: DU-4475; assay: as above
Procedure, shortened: as §1

[30] = tested on: HDQ-P1; assay: as above
Procedure, shortened: as §1

[31] = tested on: MDA-MB-453; assay: as above
Procedure, shortened: as §1

[32] = tested on: MFM-223; assay: as above
Procedure, shortened: as §1

[33] = tested on: MDA-MB-468; assay: as above
Procedure, shortened: as §1

[34] = tested on: HCC1599; assay: as above
Procedure, shortened: as §1

[35] = tested on: CAL-51; assay: as above
Procedure, shortened: as §1

[36] = tested on: MDA-MB-436; assay: as above
Procedure, shortened: as §1

[37] = tested on: BT-474; assay: as above
Procedure, shortened: as §1

Row | SMILES | normalised response [1] | normalised response [2] | normalised response [3] | normalised response [4] | normalised response [5] | normalised response [6] | normalised response [7] | normalised response [8] | normalised response [9] | normalised response [10] | normalised response [11] | normalised response [12] | normalised response [13] | normalised response [14] | normalised response [15] | normalised response [16] | normalised response [17] | normalised response [18] | normalised response [19] | normalised response [20] | normalised response [21] | normalised response [22] | normalised response [23] | normalised response [24] | normalised response [25] | normalised response [26] | normalised response [27] | normalised response [28] | normalised response [29] | normalised response [30] | normalised response [31] | normalised response [32] | normalised response [33] | normalised response [34] | normalised response [35] | normalised response [36] | normalised response [37]
1 | COc1ccc(-c2cc3c(C)nc(N)nc3n([C@H]3CC[C@H](OCCO)CC3)c2=O)cn1 (100 nM) | 89.6% | 85.6% | 91.3% | 80.1% | 95.7% | 66.1% | 107% | 37.5% | 112% | 96.2% | 88.6% | 98.1% | 96.2% | 31% | 90.3% | 85.1% | 97.9% | 94.4% | 73.7% | 58% | 68.9% | 42% | 74.5% | 67.7% | 76.8% | 74.5% | 64.8% | 69.5% | 83.2% | 66.3% | 55.7% | 72.3% | 68.8% | 88.3% | 53.4% | 77% | 67.2%
2 | CC/C(=C(\c1ccc(O)cc1)c1ccc(OCCN(C)C)cc1)c1ccccc1 [4-hydroxytamoxifen] (100 nM) | 50.3% | 93% | 113% | 99.1% | 98.8% | 115% | 89.2% | 117% | 104% | 108% | 87.3% | 111% | 106% | 106% | 114% | 98.1% | 108% | 105% | 98% | 106% | 105% | 101% | 99.9% | 105% | 96.2% | 95% | 100% | 107% | 104% | 95.9% | 111% | 99.1% | 93.2% | 91.5% | 99% | 94.9% | 99.1%
3 | O=C(Nc1c[nH]nc1-c1nc2ccc(CN3CCOCC3)cc2[nH]1)NC1CC1 [AT9283] (10 nM) | 89.3% | 91.8% | 102% | 106% | 97.7% | 108% | 123% | 98.2% | 105% | 101% | 115% | 103% | 53.1% |  | 115% | 61.2% | 103% | 102% | 101% | 96.9% | 94.8% | 93.5% | 105% | 103% | 109% | 98.1% | 100% | 94.1% | 101% | 101% | 97.1% | 98.2% | 96.6% | 95.2% | 67.3% | 105% | 93.8%
4 | COc1cc(CCc2cc(NC(=O)c3ccc(N4CC(C)NC(C)C4)cc3)n[nH]2)cc(OC)c1 (stereo not given) [AZD4547] (10 nM) | 103% | 79.9% | 99.2% | 51.3% | 102% | 91.2% | 82.4% | 94.2% | 106% | 98.2% | 104% | 104% | 92.8% | 158% | 93.9% | 95% | 55.9% | 95.9% | 89.8% | 90.3% | 103% | 92.3% | 99.5% | 95.8% | 99.3% | 94.8% | 96.4% | 98.4% | 88.8% | 98.9% | 95.7% | 70.8% | 98.3% | 104% | 111% | 105% | 106%
5 | CO[C@@H](C(=O)N1Cc2[nH]nc(NC(=O)c3ccc(N4CCN(C)CC4)cc3)c2C1)c1ccccc1 [Danusertib] (100 nM) | 98.2% | 108% | 86.5% | 69.4% | 97.5% | 111% | 93.8% |  | 101% | 97.1% | 109% | 97.7% | 104% | 69.6% | 102% | 62.2% | 98.2% | 99% | 97% | 84.6% | 95.5% | 82.5% | 57.7% | 89% | 91.4% | 96.8% | 94.8% | 92.7% | 100% | 96.4% | 133% | 67.1% | 50.5% | 105% | 82.5% | 101% | 98.6%
6 | Nc1cccc2c1CN(C1CCC(=O)NC1=O)C2=O (stereo not given) [Lenalidomide] (100 nM) | 109% | 77.9% | 101% | 104% | 97.4% | 92.4% |  | 105% | 99.6% | 101% | 100% | 100% | 107% | 102% | 107% | 76.4% | 107% | 101% | 101% | 99.3% | 100% | 98.4% | 105% | 93.3% | 99.1% | 95.3% | 94.3% | 103% | 104% | 102% | 103% | 103% | 111% | 111% | 69.2% | 93.2% | 103%
7 | Nc1ccccc1NC(=O)c1ccc(CNc2nccc(-c3cccnc3)n2)cc1 [Mocetinostat] (100 nM) | 112% | 93.1% | 97.4% |  | 93.3% | 101% |  | 89.2% | 99.1% | 99.1% | 104% | 98.1% | 97.5% | 104% | 95.8% | 82% | 96.4% | 99.1% | 93.2% | 157% | 93.3% | 115% | 99% | 102% | 102% | 86.1% | 97.5% | 106% | 107% | 88.7% | 99.4% | 92.6% | 90.6% | 97.2% | 78.3% | 90.7% | 91.5%
8 | Cc1ccc(Nc2nccc(N(C)c3ccc4c(C)n(C)nc4c3)n2)cc1S(N)(=O)=O [Pazopanib] (100 nM) | 107% | 72.7% | 103% | 96% | 95% | 98% | 66.2% | 100% | 98.1% | 101% | 109% | 97.4% | 104% |  | 112% | 104% | 94.2% | 96.2% | 103% | 97.3% | 104% | 100% | 112% | 95.9% | 105% | 99% | 98.7% | 102% | 100% | 101% | 108% | 103% | 104% | 103% | 96.7% | 103% | 107%

From the supplement of paper PMC4862054
